Measured values taken from patent publication US20250025526A1, “COMBINATION THERAPY FOR THE TREATMENT OF FRIEDREICH'S ATAXIA” (Stealth BioTherapeutics Inc., priority 2023, published 2025).
Where a SMILES comes first, the peptide text is derived from it. [ ]: non-standard residue; d: D form. Dmt = Cc1cc(O)cc(C)c1C[C@H](N)C(=O)O

Legend:
[1] = tested on: healthy (GM08402; Coriell) fibroblasts; experiment: Cytoprotection assay, RSL3-induced ferroptosis, healthy fibroblasts (CellTiter-Glo cell viability); type: cell-based, human; settings: healthy patient derived fibroblasts; 18 hour pre-incubation with test compounds 0.001 uM to 1 uM; then 1 uM RSL3 for 4 hours; FIG. 1
Description: (§1) To initiate the cytoprotection experiment, healthy (GM08402; Coriell) and FA (GM03665; Coriell) fibroblasts were resuspended in assay medium (Minimum Essential Medium Eagle w/Earles Salts and L-glutamine (MEM; Corning)+15% Qualified Fetal Bovine Serum (FBS)+penicillin (100 U)/streptomycin ([…]), seeded at 10,000 cells per well in a clear, tissue cultured treated 96 well plate), and incubated at 37° C. Eight hours later, the assay medium was manually removed and test compounds, elamipretide (Stealth Biotherapeutics Inc., Needham, MA) and omaveloxolone were added to a final volume of 100 uL at concentrations ranging between 0.001 uM and 1 uM. Following an 18 hour incubation at 37° C., the assay medium was again manually removed. Healthy fibroblasts and FA fibroblasts were then treated with 100 μL of 1 uM and 0.5 uM RSL3 (Sigma, Catalog #1219810), respectively, in assay medium for 4 hours at 37° C. Cell viability was assessed with CellTiter-Glo Luminescent Cell Viability (Promega). Luminescence units were quantified by GEN5 software on a BioTek SYNERGY neo2 plate reader (LUM filter). The data obtained for the health cells are graphically illustrated in FIG. 1 and the data obtained for the FA fibroblasts are graphically illustrated in FIG. 2. […]

[2] = tested on: FA (GM03665; Coriell) fibroblasts; experiment: Cytoprotection assay, RSL3-induced ferroptosis, FA fibroblasts (CellTiter-Glo cell viability); type: cell-based, human; settings: FA patient derived fibroblasts; 18 hour pre-incubation with test compounds 0.001 uM to 1 uM; then 0.5 uM RSL3 for 4 hours; FIG. 2
Description: as §1

For Cc1cc(O)cc(C)c1C[C@H](NC(=O)[C@H](N)CCCNC(=N)N)C(=O)N[C@@H](CCCCN)C(=O)N[C@@H](Cc1ccccc1)C(N)=O [elamipretide, H-D-Arg-2′,6′Dmt-Lys-Phe-NH2] (H-[dR][Dmt]KF-NH2), the “protective/rescue effect on the RSL3 treated cells (cell viability)” value (shortened to “protective/rescue effect”) [1] was “no apparent effect” and the “protective/rescue effect” value [2] was “no apparent effect”.

For CC1(C)CC[C@]2(NC(=O)C(C)(F)F)CC[C@]3(C)[C@H](C(=O)C=C4[C@@]5(C)C=C(C#N)C(=O)C(C)(C)[C@@H]5CC[C@]43C)[C@@H]2C1 [omaveloxolone, Omaveloxolone], the “protective/rescue effect” value [1] was “significant protective/rescue effect” and the “protective/rescue effect” value [2] was “significant protective/rescue effect”.
